{"source": "patent US9962427B2", "about": "“Treatment of right ventricular dysfunction due to pressure overload” (OTTAWA HOSPITAL RESEARCH INSTITUTE, priority 2016, dated 2018)", "key": {"[1]": {"tested_on": "Vascular Endothelial Growth Factor—VEGF", "experiment": "VEGF expression by immunofluorescence in primary cardiomyocytes", "assay_type": "cell-based", "conditions": "24 hours; hCT1 0.5 nM, PE 100 μM, PAC-1 25 μM", "method": "FIGS. 8A and 8B. […] FIG. 8B Microarray analysis of primary cardiomyocytes stimulated with hCT1 (0.5 nM) for 24 hours.\nApplicant explored the role of CT-1 as a pro-angiogenic factor in the adaptive hypertrophic response. Physiologic cardiac adaptive compensation is associated with an increase in capillary density, whereas pathologic response is characterized by a decline or no change at all. Importantly, the compensatory vascular growth/angiogenesis that occurs during physiologic adaptive compensation is permissive for the increased workload that accompanies physiologic adaptive compensation. Despite this adaptation, little information exists regarding the mechanisms that match the demand for angiogenesis to the beneficial form of myocardial growth. The rapid in vitro and in vivo adaptive compensation in response to CT-1 supports a hypothesis that the cardiomyocyte itself may act in a paracrine fashion, to signal and promote angiogenesis. To address this conjecture, Applicant examined whether CT-1 treated primary cardiomyocytes produced vascular endothelial growth factor (VEGF), an angiogenic factor known to be produced and secreted by cardiomyocytes. Primary cardiomyocytes were incubated with control serum-free media (Ctrl, SF media) or stimulated with hCT1 (0.5 nM), PE (100 μM), or PAC-1 (25 μM) for 24 hours. Immunofluorescence was used to detect α-actinin, Vascular Endothelial Growth Factor—VEGF, and nuclei. […] Based on these observations Applicant next conducted a comparative gene expression analysis of control (non-stimulated) versus CT-1 treated (0.5 nM, 24 hours) primary cardiomyocytes, using the Affymetrix Rat gene 2.0ST array."}, "Mef2": {"tested_on": "Mef2", "experiment": "Mef2 luciferase reporter in primary neonatal cardiomyocytes", "assay_type": "cell-based", "conditions": "hCT1 0.5 nM, PE 100 μM, PAC-1 25 μM", "method": "(§1) FIGS. 6A, 6B, and 6C. Stimulation with hCT1 causes sustained activation of NF-κB and Stat3 with limited activation of Mef2, as well as limited Nfat activation; the latter two indices are distinct expression patterns from pathologic hypertrophic stimulation. FIG. 6A Primary neonatal cardiomyocytes were transfected with luciferase reporter plasmids (NF-κB or Mef2), as indicators of hypertrophic activity. Luciferase activity was measured after treatments for 24 hrs with: hCT1 (0.5 nM), PE (100 μM), or procaspase 3 activating compound 1, PAC-1 (25 μM) (left). Treatments at early timepoints (30 min, 1 hr, and 3 hr) were also conducted for hCT1 (right). FIG. 6B Primary neonatal cardiomyocytes were transfected with a luciferase reporter plasmid for Stat3. Luciferase activity was measured after treatments for 24 hrs with: hCT1 (0.5 nM), PE (100 μM), or procaspase 3 activating compound 1, PAC-1 (25 μM) (left) and at earlier time points (right). FIG. 6C Primary neonatal cardiomyocytes were infected with a luciferase-based Nfat reporter Adenovirus (Nfat-AdV). Luciferase activity was measured after treatments for 24 hrs with: hCT1 (0.5 nM), PE (100 μM), or procaspase 3 activating compound 1, PAC-1 (25 μM) (left) and at earlier time points (right)\nThe signaling pathways that CT-1 engages in mediating physiologic adaptive compensatory remodeling were examined. The applicants predicted that cardiomyocyte adaptive remodeling mediated by CT-1 results (in part) from the induction of a specific transcriptional program, which is distinct from that of pathologic hypertrophic response. To address this hypothesis, the applicants tested the activity of two well-known transcription factor families that have been linked to both physiologic and pathologic cardiomyocyte growth, the Mef2 (Kolodziejczyk et al. 1999 Curr Biol. 9, 1203-1206; Kim et al. 2008, J Clin Invest. 118, 124-132.) and the NF-κB family (Gordon et al. 2011, Circ Res. 108, 1122-1132). Primary neonatal cardiomyocytes were transfected with luciferase reporter plasmids (NF-κB and Mef2) to be used as a read out of transcriptional activity. Luciferase activity was determined after treatments for 24 hrs with: hCT1 (0.5 nM), PE (100 μM), or procaspase 3 activating compound 1, PAC-1 (25 μM). […] This pattern of transcription factor activation was distinct from that induced by PE and by the caspase 3 specific activating compound PAC-1."}, "STAT3": {"tested_on": "STAT3", "experiment": "STAT3 luciferase reporter in cardiomyocytes", "assay_type": "cell-based", "conditions": "30 minutes up to 24 hours; hCT1 0.5 nM, PE 100 μM, PAC-1 25 μM", "method": "as §1\nMoreover, it is reasonable to assume that CT-1 may moderate the activity of additional transcription factors, which further contribute to the adaptive compensation phenotype. As such, Applicants decided to test the hypothesis that STAT3 (Signal transducer and activator of transcription 3) dependent transcriptional activity is a specific determinant for CT-1 induced physiologic adaptive compensation. STAT3 phosphorylation and transcriptional activation is a response that is common to the Interleukin-6 cytokine family (of which CT-1 is a member), which is mediated through binding and activation of a JAK/gp130 (Janus kinase/[…]) receptor complex."}, "NFAT": {"tested_on": "NFAT", "experiment": "NFAT luciferase reporter adenovirus (Nfat-AdV) in cardiomyocytes", "assay_type": "cell-based", "conditions": "as early as 3 hours, up to 24 hours; PE 100 μM, PAC-1 25 μM", "method": "as §1\nApplicants tested this supposition by infecting cardiomyocytes with an NFAT luciferase reporter linked to an Adenovirus (AdV) backbone (FIG. 6C). Cardiomyocytes were infected at a […] (MOI) of 20 with Nfat-AdV for 24 hours prior to stimulation with hCT1 (0.5 nM), PE (100 μM), or procaspase 3 activating compound 1, PAC-1 (25 μM). As an initial positive control, co-infection of NFAT-AdV with activated Calcineurin-AdV (a phosphatase and potent activator of NFAT signalling) caused a significant increase in NFAT activity (n=4; *, P<0.05). […] Although the exact mechanism of inhibition is unknown, Applicant has shown CT-1 engaging a PI3K signalling pathway and it would be reasonable to postulate that phosphorylation of NFAT by CT-1/PI3K signalling would limit NFAT activity."}, "rats": {"tested_on": "rats", "experiment": "M-mode ECHO after 2 weeks of osmotic minipump delivery in rats", "assay_type": "in vivo, rat", "conditions": "ISO 1 mg/kg/day", "method": "FIGS. 3A, 3B, and 3C. […] Arrows (in upper panels) point to myocardial wall (RVLW). Dotted lines (in lower panels) show inner ventricle chambers.\nCT-1 was tested in vivo to determine whether its administration would induce a myocardial adaptive remodeling characteristic of physiologic compensation (FIGS. 3A, 3B, and 3C). Osmotic minipumps containing PBS control (Ctrl) or hCT1 (6 μg/kg/hr) or Isoproterenol (ISO, 1 mg/kg/day) were implanted subcutaneously in rats. ISO is a beta-adrenergic receptor agonist and continuous infusion with ISO in rats is known to induce pathological cardiac hypertrophy and cardiomyocyte damage (in both the right and left ventricles) which progresses to heart failure (Morisco et al (2001) J Mol Cell Cardiol 33:561-573 and Grimm et al (1998) Cardiovascular Research 37:91-100). After 2 weeks of treatment, M-mode ECHO analysis was used to assess myocardial structure/function (FIG. 3A). In this model, an increased right ventricle lateral wall (RVLW) thickness indicates the presence of myocardiocytes growth, and an increased ratio of the right to left ventricle internal diameters (RVID/LVID) is an indicator of pathologic hypertrophy. An increased RVLW thickness but constant or reduced RVID:LVID ratio is an indicator of adaptive compensatory RV remodeling. Both hCT1 and ISO induced a significant increase in RVLW thickness (12% and 32% fold increase, respectively) compared to control rats (n=3; * and **, P<0.05). […] An in vivo growth reversal analysis was also conducted. Following a 2 week delivery of CT-1 protein (6 μg/kg/hr) or PE (10 mg/kg/day) as the pathologic control in this case, animals were then assessed for cardiac structure/function at a 6 week follow-on period. […] Collectively, these studies support the contention that CT-1 elicits a reversible physiologic cardiac adaptive compensation."}, "cardiomyocytes": {"tested_on": "cardiomyocytes", "method": "FIG. 7B Quantitation of cell viability analysis as shown in (A). FIG. 7C Quantification of PI cell viability FACS analysis following a 24 hrs treatment of cardiomyocytes with H2O2 in the presence or absence of hCT1. Pre-treatment with PI3K inhibitor (LY294002, 50 μM) before H2O2 was also tested.\nCardiomyocytes were treated with control serum-free media or with H2O2 (300 μM, 1 hr) to induce cell death in the presence or absence of hCT1 (0.5 nM). After 24 hrs, cells were incubated with the cell viability marker Propidium Iodide (PI) (1 μg/mL) and analyzed by FACS (Ex: 535 nm, Em: 617 nm) for viable cells; i.e. cells inside the gated region of the side scatter (SS) versus PI plot (FIG. 7A). […] The PI3K pathway is a critical feature of physiological cardiac adaptive compensation and is a key protective feature distinguishing it from pathological adaptive compensation. Therefore, cardiomyocytes were pre-treated with a PI3K inhibitor (LY294002, 50 μM) before CT-1/H2O2 treatment."}}}
{"smiles": "C=CCc1cccc(/C=N/NC(=O)CN2CCN(Cc3ccccc3)CC2)c1O", "note": "[PAC-1, procaspase 3 activating compound 1, reference compound]", "values": [{"measurement": "VEGF expression (immunofluorescence)", "setting": "[1]", "value": "less VEGF expression"}, {"measurement": "Mef2 activation after 24 hrs", "setting": "Mef2", "value": "significant activation of Mef2"}, {"measurement": "STAT3 activation", "setting": "STAT3", "value": "only minimal (if any) activation"}, {"measurement": "NFAT activity compared to baseline levels", "setting": "NFAT", "value": "significant increase of NFAT activity"}]}
{"smiles": "CC(C)NCC(O)c1ccc(O)c(O)c1", "note": "(stereo not drawn) [ISO, Isoproterenol, reference compound]", "values": [{"measurement": "increase in the RVID/LVID ratio", "setting": "rats", "value": 24, "unit": "%"}, {"measurement": "increase in RVLW thickness compared to control rats", "setting": "rats; hCT1 6 μg/kg/hr, subcutaneous minipump", "value": 32, "unit": "% fold increase"}]}
{"smiles": "O=c1cc(N2CCOCC2)oc2c(-c3ccccc3)cccc12", "note": "[LY294002]", "values": [{"measurement": "decrease in viability compared to cells treated only with hCT1/H2O2", "setting": "cardiomyocytes; pre-treatment with LY294002 50 μM before CT-1/H2O2 (FIG. 7C)", "value": 46, "unit": "%"}]}
{"smiles": "OO", "note": "[H2O2, hydrogen peroxide]", "values": [{"measurement": "cardiomyocyte viability decreased vs. control", "setting": "cardiomyocytes; 1 h, 300 μM", "value": 24, "unit": "%"}, {"measurement": "decrease in viability vs. control", "setting": "cardiomyocytes; 24 h", "value": 70, "unit": "%"}]}
